Reference: patent US20210293825A1, “METHODS FOR PRECISION THERAPEUTIC TARGETING OF HUMAN CANCER CELL MOTILITY AND KITS THEREOF” (UNITED STATES GOVERNMENT AS REPRESENTED BY THE DEPARTMENT …, priority 2018, published 2021)

Tests used:
PC3-M cells = test: Three day MTT cell growth inhibition assay, PC3-M cells; assay type: cell-based, human
[1] = test system: human breast cancer LM2-4H2N cells; test: Breast cancer orthotopic implantation / resection survival model; assay type: in vivo, SCID-Beige mice; details: post-surgery adjuvant, 25 mg/kg daily oral gavage five times/week
Protocol: Cohorts of N=12 athymic mice bearing human PCa PC3-M cell orthotopic implants (a), or of N=5 non-tumor bearing athymic mice (b), were treated with KBU2046 incorporated into chow, and resultant lung metastasis (a) or plasma KBU2046 concentration (b) measured. Values are the mean±SEM. The relationship between dose and metastasis was evaluated by two-sided ANOVA (a). FIG. 2c a comprehensive characterization of KBU2046 pharmacokinetics. CD1 mice were dosed with 100 mg KBU2046/kg via oral gavage or intravenous injection (iv), and blood collected at the indicated time points (data from mice dosed at 25 mg/kg are in FIG. 12, and corroborate 100 mg/kg findings). For each route and time point, N=3 mice were sampled. Individual data points are the resultant plasma concentrations from individual mice, and are the mean of N=2 measurements. The dotted horizontal line denotes a concentration of 24 nM, which was the concentration of KBU2046 measured in the blood of mice whose metastasis were suppressed by 92% (a-b). […] Mice were orthotopically implanted with human breast cancer LM2-4H2N cells, the resultant primary tumors resected, and adjuvant treatment begun with KBU2046 by daily oral gavage five times/week. The survival of N=6 mice receiving vehicle was compared to that of N=6 mice receiving 25 mg/kg KBU2046 by the log rank (Mantel-Cox) test.
Breast cancer: orthotopic implantation. […]

MKK4 = target: T1, MKK4 (Homo sapiens, UniProt P45985, S257E/T261E); test: MKK4 in vitro kinase assay; assay type: biochemical; details: phosphorylation of kinase dead p38a MAPK
T1 sequence (P45985 37-399 S257E/T261E): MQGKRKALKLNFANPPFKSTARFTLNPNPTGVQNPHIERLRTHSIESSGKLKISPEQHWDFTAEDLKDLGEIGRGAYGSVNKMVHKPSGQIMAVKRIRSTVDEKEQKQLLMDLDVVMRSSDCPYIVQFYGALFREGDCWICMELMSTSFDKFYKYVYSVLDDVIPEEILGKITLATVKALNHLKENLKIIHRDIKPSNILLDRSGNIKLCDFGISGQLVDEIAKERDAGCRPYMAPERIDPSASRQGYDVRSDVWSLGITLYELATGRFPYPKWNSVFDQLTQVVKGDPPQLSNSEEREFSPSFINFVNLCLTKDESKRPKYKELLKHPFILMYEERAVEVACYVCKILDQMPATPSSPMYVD
Protocol: FIG. 16a is a depiction of established MKK4 pathway regulating human PCa cell metastasis. […] Values are the mean±SD (of N=2 replicates) increase in melting temperature (ΔTm) of purified recombinant MKK4 induced by the indicated concentrations of KBU2046 or genistein. […] The indicated concentrations of KBU2046 were added to recombinant activated MKK4, and its ability to phosphorylate kinase dead p38a MAPK (K53A) was measured by Western blot for total (p38 MAPK) and phosphorylated (pp38 MAPK) forms of p38 MAPK. […] PC3-M cells were pre-treated for 24 hours with 50 μM KBU2046 or genistein, as indicated, then with TGFβ, and Western blot performed. These findings are from a single experiment, with similar findings in identical separate experiments, repeated at least once.
In Vitro Kinase Assays. MEK4/MKK4/MAP2K4 in vitro kinase assay was performed as described (Krishna, S. N. et al., PLoS One 8, e81504 (2013)). HSP90β/CDC37 heterocomplex kinase assays with RAF1, SGK3 and MAP3K6 assays incubated indicated proteins in 20 mM MOPS, pH 7.2, 25 mM β-glycerol phosphate, 5 mM EGTA, 1 mM sodium orthovanadate, 1 mM dithiothreitol, 0.25 mM ATP and 37.5 mM MgCl2 at 30° C. for the indicated times.

[2] = Histologic examination of tissue / systemic off-target effects; assay type: in vivo, Balb/c athymic mice
Protocol: Histologic examination of tissue. Organs of athymic male mice stained with H&E, Trichrome or Giemsa were microscopically examined by a mouse pathologist in a blinded fashion, and toxicity scored using an established semi-quantitative histological scoring system (Knodell, R. G. et al., Hepatology 1, 431-5 (1981)) (FIG. 14). The following clinical chemistry parameters were measured in blood of CD1 male and female mice by Charles River Research Animal Diagnostic Services: cholesterol, triglycerides, alanine aminotransferase (ALT), aspartate aminotransferase (AST), total bilirubin, glucose, phosphorus, total protein, calcium, blood urea nitrogen (BUN), creatinine, albumin, Na, K, Cl, white blood cells (with differential), red blood cells, hemoglobin, and platelets.
After 35 days of treatment, the following organs were harvested at necropsy, and stained with H&E (alternative staining methods as indicated): heart, lungs, esophagus, stomach, colon, small intestine, liver (Trichrome staining), kidneys (Trichrome staining), adrenals, bladder, prostate, spleen, pancreas, brain, testes, and bone marrow and peripheral blood (Giemsa staining). Organs were examined for damage using a semi-quantitative histological scoring system, as described (Knodell, R. G. et al., Hepatology 1, 431-5 (1981)). […] Note that mice were immunocompromised, and that changes in the liver reflected episodic and minor foci of necrosis, consistent with a prior resolved infection; clinically, mice were all healthy. The graph above depicts the scoring of liver lesions, with each data point representing a single mouse.

O=C1c2ccccc2OCC1c1ccc(F)cc1 (racemic) [KBU2046, (±)-3(4-fluorophenyl)chroman-4-one]
cell growth inhibition (PC3-M cells): no growth inhibitory effects | survival [1]: significantly prolonged the survival | inhibition of MKK4 kinase activity (MKK4): does not inhibit MKK4 | changes in the liver ([2]; 35 days of treatment in chow): not increased by KBU2046 treatment | organ damage (histological scoring) ([2]; 35 days of treatment in chow): No organ damage was observed, except in the livers of both control and treatment mice | off-target effects (tumor growth, behavior, weight, histology, serum chemistry) ([2]; mouse, in vivo): failed to identify KBU2046-associated off-target effects
